This is an account of results in a melting point compilation (Tetko et al.; mined from patent text by program, amines drawn as free bases though some values may be those of a salt).

The compound `CCOc1ccccc1C=[N+]([O-])C(C)(C)C` returned a melting point of 58.3 °C.

Regarding `Cc1cn(C2CC(O)C(COC(=O)Oc3ccc([N+](=O)[O-])cc3)O2)c(=O)[nH]c1=O` (stereo not drawn), the melting point lay within 145 to 146 °C.

As for `O=c1c2ccc(O)cc2nc(-c2ccc(O)cc2)n1-c1ccc(OCCCl)cc1`, the melting point is 285 to 287 °C.

`O=C(Cn1cnc(-c2ccc(OCc3ccccc3)cc2)n1)c1ccc(F)cc1F` showed a melting point of 142 to 143 °C.

In turn, `CCc1c(C#N)oc(=O)n1S(=O)(=O)c1c(C)noc1C` showed a melting point of 117 to 122 °C.

In turn, `CCN(CC)c1ccc(N(c2ccc(N(CC)CC)cc2)C2(c3ccc(N(CC)CC)cc3C)OC(=O)c3ccccc32)cc1` (stereo not drawn) gave a melting point of 58 to 71 °C.

`CCS(=O)(=O)N(C)C1c2cc(Cl)cc(Cl)c2OC(C)(C)C1OC(C)=O` (stereo not drawn) came in with a melting point of 136 to 137 °C.

`Cc1ccc(C(=O)Nc2ccc(C)c(-c3nc(N(C)C)nc4c3CNC(=O)N4c3c(F)cccc3F)c2)cc1F` registered a melting point of 258 to 264 °C.

As for `Cc1ccc(S(=O)(=O)N(C)c2ccc(Br)cc2[N+](=O)[O-])cc1`, the melting point lay within 82.5 to 83.5 °C.

For the compound `O=C1CC2CC(C1)CN(Cc1ccccc1)C2`, the melting point was 89 °C.

In turn, `O=C1C(=O)c2ccc(-c3ccccc3)cc2C2=C1SCC1(CCN(C(=O)c3cccc(Cl)c3)CC1)O2` had a melting point of 240 to 241 °C.

`O=[N+]([O-])c1cc2c(NCc3ccc4c(c3)OCO4)nc(-n3ccnc3)nc2s1`: the melting point amounted to 245 °C.

Consider `CCCCn1c(=O)c2c(ncn2S(=O)(=O)CC23CCC(CC2=O)C3(C)C)n(CCCC)c1=O` (stereo not drawn), for which the melting point was in the range of 55 to 56 °C.

Turning to `O=S(=O)(c1ccc(Br)s1)N1CCN(c2ccc(F)cc2)CC1`, the melting point lay within 123 to 124 °C.

In turn, `O=Cc1coc2cc3c(cc2c1=O)OCO3` gave a melting point of 232 to 233 °C.

The compound `COc1cc(C=Cc2ccc(=O)[nH]n2)cc(OC)c1OC` registered a melting point of 194 to 196 °C.

`CC(C)(C)COS(=O)(=O)c1ccc(Oc2c(Cl)cccc2[N+](=O)[O-])cc1` yielded a melting point of 111 to 112 °C.

Regarding `O=C1N=NC(=O)c2ccccc21`, the melting point fell in the range of 257 to 259 °C.

With `COC(=O)CCc1cc2c(OC)cccc2n1Cc1ccccc1`, the melting point fell in the range of 195 to 196 °C.

The compound `CN1C(=O)C(NC(=O)Nc2cccc(Cl)c2)N=C(c2ccccc2)c2ccccc21` (stereo not drawn) showed a melting point of 178 to 180 °C.

`O=[N+]([O-])CC(SC(=S)N1CCCCC1)c1ccccc1` (stereo not drawn) had a melting point of 86 to 90.5 °C.

As for `N#Cc1ccc(OCCCc2cn(C(c3ccccc3)(c3ccccc3)c3ccccc3)cn2)cc1`, the melting point fell in the range of 187 to 188 °C.

Consider `CC(=S)NCC1CC(c2ccc(-n3cccc3)c(F)c2)=NO1` (single isomer, unassigned; (-)), for which the melting point lay in the range of 152 to 153 °C.

Consider `c1ccc(-c2csc3ncnc(NCc4ccco4)c23)cc1`, for which the melting point fell in the range of 77 to 79 °C.

Compound `CCC(=S)OC1(C(=O)COC(=O)C(C)C)CCC2C3CC(C)C4=CC(=O)C=CC4(C)C3C(O)CC21C` (stereo not drawn) had a melting point of 151 to 152 °C.

As to `O=C(c1cccnc1)N1CCC(c2ccc(Cl)cc2)=N1`, the melting point fell in the range of 125 to 126 °C.

In the case of `CCOC(=O)C1=C(COCC(C)(O)Cc2ccccn2)NC(C)=C(C(=O)OC)C1c1cccc(Cl)c1Cl` (stereo not drawn), the melting point lay in the range of 163 to 164 °C.

For the compound `c1ccc(N2CCOCC2)c(N=C2NCCN2)c1`, the melting point was in the range of 185 to 186 °C.

As to `Cc1nc(N2CCOCC2)sc1-c1ccnc(Nc2ccc(N3CCOCC3)cc2)n1`, the melting point lay in the range of 229 to 231 °C.

For the compound `O=C(NCCNCC(O)COc1ccc(OCCOCC2CCC2)cc1)N1CCOCC1` (stereo not drawn), the melting point was 91 to 93 °C.

Consider `CC(C)N(CCN1C(=O)/C(=N/NC(N)=O)c2cc(F)ccc21)C(C)C`, for which the melting point lay in the range of 158 to 160 °C.

On to `O=C1C(=O)c2ccccc2C2=C1SCC1(CCN(CC3CCCCO3)CC1)O2` (stereo not drawn), for which the melting point lay within 135 to 137 °C.

As to `FC(F)(F)Sc1cc[nH]c1-c1ccc(Cl)cc1`, the melting point fell in the range of 59 to 64 °C.

Regarding `CCOC(=O)c1c(-c2ccc(F)cc2)cc(-c2ccccc2Cc2ccccc2)nc1C(C)C`, the melting point lay in the range of 94 to 97 °C.

Consider `CCOC(=O)COc1ccc(Cn2c(-c3ccc(OCc4ccccc4)cc3)c(C)c3cc(OCc4ccccc4)ccc32)cc1`, for which the melting point was in the range of 129 to 131 °C.

In turn, `CCC(=O)N(C)c1cccc(-c2ccnc3c(C(=O)c4ccccc4)cnn23)c1` came in with a melting point of 154 to 156 °C.

In turn, `O=C(Nc1ccc(F)cc1)NN1CC=C(c2ccccc2)CC1` displayed a melting point of 200 to 212 °C.

Consider `CNc1ccc(CC(=O)C(=O)O)cc1`, for which the melting point turned out to be 210 °C.

The compound `CCCc1c(S)ccc2c(=O)c(C(=O)OC)coc12` registered a melting point of 98 to 99 °C.

`CC(=O)c1ccc(C2=CCCCCC2)cc1` came in with a melting point of 36 to 38 °C.

`S=c1[nH]ccn1C1CCc2ccccc21` (stereo not drawn) came in with a melting point of 136 to 137 °C.

As for `COc1ccc(C2CCc3cc(OC)ccc3C2CCO)cc1` (stereo not drawn), the melting point was determined as 95 °C.

As to `CC(=O)OCc1cccc([N+](=O)[O-])c1Br`, the melting point is 60 to 63 °C.

Compound `COCOc1cccc(COc2cc3c(cc2-c2cc(C=CC(=O)O)ccc2OC)C(C)(C)CCC3(C)C)c1` gave a melting point of 144 to 146 °C.

The compound `COCCCCCCCCCCCCCCSCCC(=O)OC` registered a melting point of 31 to 32 °C.

`Cc1ccc(-c2ccc(NC(=O)OC(C)(C)C)c([N+](=O)[O-])c2)cc1` registered a melting point of 105 to 108 °C.

`CS(=O)(=O)c1ccc(Oc2ccc3[nH]c(C4=NCC(CC(=O)O)S4)cc3c2)cn1` (stereo not drawn) showed a melting point of 205 to 208 °C.

`COc1cc(CO)ccc1OCc1nc(-c2cccc([N+](=O)[O-])c2)oc1C`: the melting point lay in the range of 134 to 135 °C.

Consider `O=C(NCCCCCOc1cc(CN2CCCCC2)ccn1)c1cn[nH]c1`, for which the melting point lay within 105 to 106 °C.

In turn, `O=c1cc(-c2cccs2)c2ccccc2[nH]1` had a melting point of 262 to 264 °C.

As to `Cc1nc2cc(NC(=O)c3ccco3)ccc2o1`, the melting point was in the range of 156 to 158 °C.

The compound `N#Cc1ccc2cc(O)ccc2c1` returned a melting point of 160 to 164 °C.

On to `O=C1OC[C@@H](c2ccccc2)N[C@H]1Cc1ccccc1`, for which the melting point lay in the range of 75 to 76 °C.

In turn, `COc1cccc(C=O)c1Oc1ccc([N+](=O)[O-])cc1` showed a melting point of 130 to 131 °C.

In the case of `O=C(O)C(=O)c1ccc(OCCCc2ccccc2)cc1`, the melting point lay in the range of 58 to 59 °C.

The compound `COc1cc(C)c(S(C)=O)cc1O` (stereo not drawn) registered a melting point of 148 to 150 °C.

The compound `O=C(O)c1cn(Cc2c(F)cccc2Cl)nn1` came in with a melting point of 274 to 276 °C.

In turn, `N=C(N)c1ccc(N2CCN(c3ccc(SCC(=O)O)cc3)C2=O)cc1` displayed a melting point greater than 275 °C.

In turn, `CC1=Nc2cc3c(cc2C1(C)C)N=C(C)C3(C)C` returned a melting point of 190 to 195 °C.

Consider `CC12CCC3c4ccc(C(=O)O)cc4CCC3C1CCC2C(=O)c1ccc(Oc2ccccc2)cc1` (stereo not drawn), for which the melting point fell in the range of 224 to 225 °C.

In turn, `CCOc1cc(C(=O)O)cc(N)c1C(=O)c1ccccc1` yielded a melting point of 230 °C.

In turn, `COc1cc(C(=O)c2c(-c3ccc(OCCN4CCCC4)cc3)sc3ccc(O)cc23)ccc1CN1CCCC1` gave a melting point of 95 to 99 °C.

Compound `Cc1cc(C)c(S(=O)(=O)N=[N+]=[N-])c(C)c1S(=O)(=O)N=[N+]=[N-]` yielded a melting point of 54 to 56 °C.

With `CCc1nc2c(cnn2CC)c(NC2CCOCC2)c1CNC(=O)c1cccc(C(=O)NCc2cc(Cl)cc(-c3cccc(CN4CCNCC4)c3)c2)c1`, the melting point is 119 to 122 °C.

The compound `CC1(C)COc2ccc(OC(F)(F)F)cc2C(O)(c2ccccn2)C1` (stereo not drawn) came in with a melting point of 76 °C.

Compound `O=C(O)C1=Cc2cc(Cl)cc(-c3cccs3)c2OC1C(F)(F)F` (stereo not drawn) had a melting point of 258 to 259 °C.

In turn, `CC(C)(C)C(C)(O)C(Cn1cncn1)Oc1ccc(Cl)cc1` (stereo not drawn) displayed a melting point of 150 °C.

In turn, `CCOc1ccc(OCC(C)(NS(=O)(=O)Cc2ccccc2)C(=O)N(C)OC)cc1` (stereo not drawn) returned a melting point of 179 to 181 °C.

Consider `COC=C(Oc1cccc(-c2ccc(Cl)cc2)n1)C(=O)OC`, for which the melting point lay within 50 to 54 °C.

`CCC(OC)(c1cccc(O)c1)c1nccs1` (stereo not drawn) displayed a melting point of 101 to 103 °C.

In the case of `O=c1c2c(c1=O)Nc1c(cc(Cl)c(Cl)c1Cl)N2`, the melting point is greater than 360 °C.

`CCCCCS(=O)c1cccc(-c2nc(=O)c3ccccc3s2)n1` (stereo not drawn): the melting point was in the range of 146 to 147 °C.

`Cc1ccc(S(=O)(=O)OC[C@@H](O)CCc2ccccc2)cc1`: the melting point fell in the range of 68 to 69 °C.

`COC(=O)c1cc(NC(C)=O)c([N+](=O)[O-])cc1C(=O)OC` displayed a melting point of 119 to 120 °C.

In the case of `CCOC(=O)c1cc2cc(C(F)(F)F)cnc2n1Cc1ccccc1`, the melting point was 72 to 73 °C.

Compound `FC(F)Oc1cc(-n2nc3c(c2Cl)CCCC3)c(Cl)cc1Cl` displayed a melting point of 121 to 123 °C.

Consider `CCCC#Cc1ccnc2[nH]cc(-c3ccnc(N)n3)c12`, for which the melting point is greater than 210 °C.

In turn, `C=COC(=O)n1c(S(=O)Cc2ccc(C)cn2)nc2cscc21` (stereo not drawn) returned a melting point of 162 °C.

`C[C@@H]1CN(C(=O)[C@@](C)(O)C(F)(F)F)[C@@H](C)CN1S(=O)(=O)c1cccs1` had a melting point of 116 to 117 °C.

`COCCCOc1ccc(-c2nc(C(=O)Nc3nccs3)c(-c3ccc(Cl)cc3)[nH]2)cc1` displayed a melting point of 173 to 177 °C.

`COc1ccccc1CSc1c(O)cc(-c2ccccc2)oc1=O` registered a melting point of 152 to 153 °C.

`COCCOc1ccc([N+](=O)[O-])cc1F` showed a melting point of 62 to 63 °C.

The compound `CN(C(=O)Nc1ccccc1F)C(Cl)C(Cl)(Cl)Cl` (stereo not drawn) gave a melting point of 130 to 141 °C.

On to `CCOc1ccc(C2=NN(C3CCN(C(=O)NC(C)(C)C)CC3)C(=O)[C@@H]3CC=CC[C@H]23)cc1OCC`, for which the melting point is 145 to 148 °C.

With `CCCCc1c(C(=O)c2ccc(OC)cc2)[nH]c2ccc([N+](=O)[O-])cc12`, the melting point is 142 °C.

`CCc1[nH]c2ccc(OC)cc2c1C=O` had a melting point of 211 to 212 °C.

In the case of `CN1CCC(Nc2nccc(Oc3ccc(NC(=O)c4cc(F)cc(N5CCOCC5)c4)c4ccccc34)n2)CC1`, the melting point lay in the range of 128 to 129 °C.

`ClCc1ccc(-c2nc3cccc(Cl)c3o2)cc1` came in with a melting point of 92 to 93 °C.
